Results from patent US20100240887A1, “New methods of producing HHT” (priority 2009, published 2010).
Where two headings read alike, the source gives them in different places.

What was measured:
gastric cancer cells = experiment: Cellular diversion of gastric cancer cells (NBT); assay type: cell-based
L615 transplanted tumor = experiment: Growth of transplanted tumor in mice; assay type: in vivo; conditions: intraperitoneally, 20 mg/kg, sacrificed on the 12th day
Description: Male mice, weight 20-22 g, were used in the experiment. 1×10^7 tumor cells were injected to mouse and other drugs injected intraperitoneally began second day. All mice were sacrificed on the 12th day, isolated the tumor and weighed and calculated the inhibition rate of tumor weight.
The effect of HHT on the growth of animal transplanted tumor as illustrated by the Table 6.20 mg/kg of other drugs could inhibit the growth of L615 transplanted tumor.

[1] = system: NNK-induced pulmonary adenomas; experiment: NNK-induced lung tumorigenesis; assay type: in vivo; conditions: mice, 20 mg/kg daily by injection, NNK 10 μmol i.p., sixteen weeks
Description: Every group had 20 mice. […] For control group, each mouse was gave same volume of physiological saline. Three days later, mice were gave 10 μmol NNK (in 0.1 ml saline) by i.p. injection. Sixteen weeks after these treatments the mice were killed and pulmonary adenomas were counted. The statistical significance of bioassay data was determined by student's test.

Malignant melanoma cells = experiment: Apoptosis of malignant melanoma cells; assay type: cell-based; conditions: 50 ng/ml
Description: (§1) Cells ([…] were incubated in 10 ml IMDM plus […] heat-inactivated fetal calf serum. Samples were incubated for 24 hours with various concentrations of drugs. Control samples received the same amount of media, without drug addition. After 24 hours of incubation the samples were pelleted and fixed in ethanol […] for 15 minutes at 4° C.; after three washes in PBS, the cells were treated with RNase I 0.5 mg/ml for 15 minutes at 37° C. The cells were harvested by centrifugation and resuspended in 50 μg/ml propidium iodide in PBS. Analysis (upon acquisition of 10,000-20,000 events) was performed on a FACscan flow cytometer with the FL2 detector in logarithmic mode, using Lysis II software (Becton Dickinson). […]
(§2) For evaluation of apoptosis by flow cytometry, cells were fixed and permeabilized in 1% paraformaldehyde and ice-cold 70% ethanol. […] Green (apoptotic cells) and orange (total DNA) fluorescence were measured with a FACScan flow cytometer and analyzed with LYSIS II and CELLFIT programs. Data were analyzed by Student's t-test. […]
(§3) Untreated and treated HL-60 cells collected by centrifugation, washed in phosphate buffered saline and re-suspended at a concentration of 5×10^6 cells and 0.1% RNase A. The mixture was incubated at 37° C. for 30 min and then incubated for an additional 30 min at 37° C. […] DNA was precipitated with 0.5 N perchloric acid and quantitated using diphenylamine reagent. […]

tyrosine kinase (TK) = experiment: Tyrosine kinase (TK) assay in HL-60 leukemia cells; assay type: cell-based, human; conditions: for % of control activity (TK): Table 8, concentration not given
Description: Tyrosine kinase (TK) Assay: TK was measured by a modification of the method of Braun et al. Briefly, H-60 leukemia cells were plated at a density of 5×10^5 cells in […], and divided control and treatments groups for incubation 24 hours at 37° C. with 5% CO2. The cells were collected by scraping, washed twice with phosphate-buffered saline, and resuspended at density of 10^6 cells/ml in 5 mM HEPEs buffer (pH 7.4). The cells were then resuspended in 1 ml of buffer containing 5 mM HEPES (pH 7.6), 1 mM MgCl2 and 1 mM EDTA, then placed on ice bath. The cell membrane was disrupted by ultra sound and centrifuged at 1,000×g for 10 minutes. The supernatant was ultra centrifuged at 30,000×g for 30 minutes at 4° C. The pellet was resuspended in 0.3 ml of buffer containing 25 mM HEOES, centrifuged at 12,000×g for 5 minutes. The resulting supernatant was used for TK assay. Content of protein was determined. 10 μg of protein placed in 20 mM HEPES (pH 7.6), 15 mM MgCl2, 10 mM ZnCl2 and 5% (v/v) nonidet P-40, with or without substrate [glutamic acid (GT), mg/ml]. After 5 minutes incubation at 25° C., the reaction was initiated by the addition of 25 μM [γ^32P] ATP (3 ci/mmol). After 10 minutes, the reaction was stopped by the addition of 20 mM cold ATP. 50 μl of the mixtures were spotted on glass microfiber filter discs and washed three times with cold trichloroacetic acid (TCA), contained 10 mM sodium pyrophosphate. Air dried. Radioactivity was determined by liquid scintillation spectrometry. The net TK activity was determined after correcting for endogenous TK activity.

Normal cells = experiment: Apoptosis of normal cells; assay type: cell-based; conditions: 50 ng/ml (Table 4)
Description: as §1, §2, §3

Leukemic cells = experiment: Inhibition of tumor cell proliferation, leukemic cells; assay type: cell-based, human; conditions: 1 μg/ml, 72 hours
Description: (§4) Human tumor cell lines: Hela leukemia HL-60, malignant melanocarcinoma B16, oral epidermoid carcinoma (KB), lung carcinoma (A549), breast carcinoma MCF-7, adenocarcinoma of stomach.
(§5) Animal tumor cell lines: Walker carcinoma, LLC-WRC-256, malignant melanoma (RMMI 1846), 3T3, and S-180 sarcoma (CCRF-180). All lines were routinely cultured in the RPMI1640 medium supplemented 20% fetal calf serum. The experiment was carried out in 96 microplate, each well had 5×10^5 cells and given desired concentration of 1 μg/ml (1×10^−6 g/ml) drug. Then the plate was incubated at […] in an atmosphere of humidified air enriched with 5 percent carbon dioxide for 72 hours.
(§6) Inhibition percent rate of tumor cell proliferation was obtained according to the bellow formula.

HL-60 cells = experiment: Cellular diversion of human leukemic cells (NBT); assay type: cell-based; conditions: human leukemic cells (HL-60); index of normal cells
mice = experiment: LD50 in mice; assay type: in vivo; conditions: injection in abdominal cavity in mice
Text: (§7) • 1. […] LD50 of HHT is much higher than majority anticancer drugs. The toxicology data of HHT mean that HHT is safe drug for treatment of cancer cells.

[2] = system: Malignant melanoma of the pigmented layers of eyes; experiment: Inhibition of tumor cell proliferation, malignant melanoma of eyes; assay type: cell-based; conditions: 1 μg/ml, 72 hours
Description: as §4, §5, §6

dogs [3] = experiment: Short-term toxicity in dogs
Description: (§8) Forty dogs were used. Body weight, food consumption, general observations, laboratory tests, and postmortem examinations were determined.
(§9) Twenty normal adult dogs had weight approximately 10 kg±1 kg used in experiments. Toxic doses for dogs: 0.15 mg/kg/days×7 and 0.30 mg/kg/days×7 of HHT was injected as the toxic doses.
(§10) For HHT treatment group, at least eight dogs that died early in the observation period and eight dogs that died late were examined.

dogs [4] = conditions: dog, in vivo
Description: as §8, §9, §10

LD50 in mice = assay type: in vivo; conditions: mouse, in vivo, intraperitoneal; injection in abdominal cavity in mice
Text: as §7

Structure (SMILES) | Inhibition (%) of transplanted tumor (tumor weight) (L615 transplanted tumor) [%] | Tumor incidence (%) [1] [%] | Apoptosis (%) (Malignant melanoma cells) | % of control activity (TK) (tyrosine kinase (TK)) [%] | Apoptosis (%) (Normal cells) | Inhibition (%) (Leukemic cells) | NBT (%) (HL-60 cells) | LD50 (mice) [mg/kg] | Inhibition (%) [2] [%] | further results
COC(=O)C[C@](O)(CCCC(C)(C)O)C(=O)O[C@@H]1C(OC)=C[C@]23CCCN2CCc2cc4c(cc2[C@H]13)OCO4 [C-HHT] | 67.8 ± 6.0 | 21.7 ± 4.8 | 43.8 ± 4.2 | 20.0 ± 5.0 | 19.2 ± 2.5 | 74.1 ± 10.8 | 64 ± 8.0 | 4.0 | 83.1 ± 9.8 | NBT (%) (gastric cancer cells): 57 ± 8.9 %
COC(=O)C[C@](O)(CCCC(C)(C)O)C(=O)O[C@@H]1C(OC)=C[C@]23CCCN2CCc2cc4c(cc2[C@H]13)OCO4 [HHT, Homoharringtonine] |  |  |  |  |  |  |  |  |  | Heart rate (dogs [3]; 0.1 mg/kg/d × 7, ♀): 208 beat/min; Leukocyte count (dogs [3]; 0.1 mg/kg/d × 7, ♀): 3.91 ×10^3/mm^3; Heart rate (dogs [3]; 0.2 mg/kg/d × 7, ♀): 232 beat/min; Leukocyte count (dogs [3]; 0.2 mg/kg/d × 7, ♀): 3.65 ×10^3/mm^3; Heart rate (dogs [3]; 0.3 mg/kg/d × 7, ♀): 260 beat/min; Leukocyte count (dogs [3]; 0.3 mg/kg/d × 7, ♀): 3.25 ×10^3/mm^3; delayed toxicity (dogs [4]): No significant delayed toxicity; major target organs involved in toxicity (dogs [4]): G.I. tract, heart and hematopoietic organs; Heart rate (dogs [4]; 0.1 mg/kg/day): 205 beat/min; Leukocyte count (dogs [4]; 0.1 mg/kg/day): 3.90 ×10^3/mm^3; Heart rate (dogs [4]; 0.2 mg/kg/day): 230 beat/min; Leukocyte count (dogs [4]; 0.2 mg/kg/day): 3.58 ×10^3/mm^3; Heart rate (dogs [4]; 0.3 mg/kg/day): 259 beat/min; Leukocyte count (dogs [4]; 0.3 mg/kg/day): 3.20 ×10^3/mm^3; inhibition of TK activity (tyrosine kinase (TK); 10^−6 M): 99.9%; LD50 (LD50 in mice): 4.07 mg/kg; inhibition at 1 µg/mL [2]: 80 ± 9.2%
COC(=O)C[C@](O)(CCCC(C)(C)O)C(=O)O[C@@H]1C(OC)=C[C@]23CCCN2CCc2cc4c(cc2[C@H]13)OCO4 [S-HHT] | 69.2 ± 7.0 | 26.5 ± 4.9 | 43.0 ± 6.0 | 20.8 ± 4.8 | 18.0 ± 2.0 | 72.5 ± 11.6 | 63 ± 7.8 | 4.20 | 82.5 ± 10.2 | 
